B1: 8762NT: nucleic acid ligand derived from human ribosomal DNA: CGGAGGGCGCGCGGGTCGGGGCGGCGGCGGCGGCGGCGGTGGCGGCGGCGGCGGGGGCGGCGGG (nucleic acid)
DNA: CGGAGGGCGCGCGGGTCGGGGCGGCGGCGGCGGCGGCGGTGGCGGCGGCGGCGGGGGCGGCGGG
modifications: chemistry not given here

T1 sequence (P19338 284-710 limits assumed): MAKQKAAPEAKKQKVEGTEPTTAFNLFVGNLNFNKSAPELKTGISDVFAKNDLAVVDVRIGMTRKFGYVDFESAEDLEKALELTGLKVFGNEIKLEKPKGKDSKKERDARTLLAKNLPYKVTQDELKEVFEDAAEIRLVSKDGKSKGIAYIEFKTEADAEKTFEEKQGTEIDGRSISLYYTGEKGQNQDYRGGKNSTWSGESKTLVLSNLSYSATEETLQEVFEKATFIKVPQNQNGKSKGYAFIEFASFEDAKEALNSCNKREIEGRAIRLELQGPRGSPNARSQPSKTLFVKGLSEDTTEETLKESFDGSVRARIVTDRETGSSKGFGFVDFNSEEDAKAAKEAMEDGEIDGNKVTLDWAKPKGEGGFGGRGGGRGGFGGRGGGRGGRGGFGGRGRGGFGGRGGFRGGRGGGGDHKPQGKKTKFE

The test system of the first data set is HCT-116. As to the kind of experiment: HCT-116 MTS cell viability assay. Type of data set: cell-based. The settings on record: Homo sapiens, HCT-116 cells.
What is called IC50 is the concentration at which inhibition is half-maximal. `O=C(NCCN1CCCC1)c1c(=O)c2ccsc2n2c1sc1ccccc12`: the IC50 was determined as 40 nM. Consider `O=C(NCCN1CCCC1)c1c(=O)c2cc(Cl)sc2n2c1sc1ccccc12`, for which the midpoint of inhibition, the IC50, lay at 10 nM. Still for that read-out and setting: to `CCOC(=O)c1c(=O)c2ccsc2n2c1sc1ccccc12` belongs 9800 nM; to `CCOC(=O)c1c(=O)c2ccsc2n2c1[nH]c1ccccc12`, 10000 nM; to `Cn1c2cc3ccccc3cc2n2c3sccc3c(=O)c(C(=O)NCCN3CCCC3)c12`, 300 nM. On the same count and under the same terms, then `O=C(NCCN1CCOCC1)c1c(=O)c2ccsc2n2c1sc1ccccc12`, with 2100 nM; and `O=C(NCc1ccccn1)c1c(=O)c2ccsc2n2c1sc1ccccc12`, with 2050 nM; and `CCOC(=O)c1c(=O)c2ccsc2n2c1[nH]c1cc3ccccc3cc12`, with 4000 nM. On the same count and under the same terms, then `Cn1c2ccccc2n2c3sccc3c(=O)c(C(=O)NCCN3CCCC3)c12`, with 3200 nM. For the molecule `O=C(NCCN1CCCC1)c1c(=O)c2cc(N3CCCC3)sc2n2c1sc1ccccc12`, half-maximal inhibition (IC50) was put at 50 nM. Same read-out and setting: to `CCOC(=O)c1c(=O)c2cc(Cl)sc2n2c1sc1ccccc12` belongs 10000 nM; to `CCOC(=O)c1c(=O)c2cc(Br)sc2n2c1sc1ccccc12`, 10000 nM.

The next data set addresses T1, nucleolin (Homo sapiens, UniProt P19338).
T1 construct: without the N-terminal acidic stretches domain
As to the kind of experiment: Nucleolin/nucleic acid ligand gel retardation binding assay. The arrangement: key: A “+” represents the weakest nucleolin affinity; a “++++” represents the strongest nucleolin affinity. The settings on record: relative affinity of nucleic acid ligand for recombinant nucleolin (MBP fusion). The method, then: The following assays can be used to assess the effects of compounds on interactions between nucleolin and nucleic acid ligands capable of forming quadruplex (QP) and hairpin (HP) secondary structures. Nucleic acid ligands tested were a cMyc QP DNA having nucleotide sequence 5′-[…]-3′ and a HP pre-rRNA region to which nucleolin binds, having the sequence 5′-[…]-3′. In the assays, recombinant nucleolin (˜250 nM), which has been fused to maltose binding protein, and has the sequence under accession number NM_005381 without the N-terminal acidic stretches domain, is incubated with each of the two ^32P-labeled nucleic acid ligands (10 or 250 nM). Nucleolin and the nucleic acid ligand are incubated in the presence or absence of a test compound 7 in an incubation buffer (12.5 mM Tris, pH 7.6, 60 mM KCl, 1 mM MgCl2, 0.1 mM EDTA, 1 mM DTT, 5% glycerol, 0.1 mg/ml BSA) for 30 minutes at room temperature.
The resulting complexes are separated on a 6% DNA retardation gel using 0.5×TBE with 20 mM KCl as a running buffer. The assay also can be conducted using nucleic acid ligands derived from human ribosomal DNA, whereby one can identify a compound that selectively modulates formation of a nucleolin/nucleic acid complex that depends on the conformation of the nucleic acid. Sequences of suitable nucleic acids are shown in the preceding example. […] A “+” represents the weakest nucleolin affinity and a “++++” represents the strongest nucleolin affinity. […] Using nucleic acids such as these having known conformational properties, one can identify a compound such as the compounds described herein that selectively interferes with binding of nucleolin to a particular quadruplex structure.
Turning to “8749NT: nucleic acid ligand derived from human ribosomal DNA: GGGAGGGCGCGCGGGTCGGGG (chemistry not given here) [Compound 8749NT]”, the “Affinity for Nucleolin” value is recorded as “+”. Same read-out and setting: to “11028NT: nucleic acid ligand derived from human ribosomal DNA: GGGGCGCGGCGGGGGGAGAAGGGTCGGGGCGGCAGGGG (chemistry not given here) [Compound 11028NT]” belongs “+”; to “6183NT: nucleic acid ligand derived from human ribosomal DNA: GGGTCGGGGGCGGTGGTGGGCCCGCGGGGG (chemistry not given here) [Compound 6183NT]”, “+”; to “1196NT: nucleic acid ligand derived from human ribosomal DNA: GGGTGGACGGGGGGGCCTGGTGGGG (chemistry not given here) [Compound 1196NT]”, “+”. Turning to “8511NT: nucleic acid ligand derived from human ribosomal DNA: GGGGGTGGGCGGGCGGGGCCGGGGGTGGG (chemistry not given here) [Compound 8511NT]”, the “Affinity for Nucleolin” value is “++++”. Turning to “7733T: nucleic acid ligand derived from human ribosomal DNA: GGGAGGGGCACGGGCCGGGGGCGGGACGGG (chemistry not given here) [Compound 7733T]”, the “Affinity for Nucleolin” value is “+”.

B1: the “Affinity for Nucleolin” value is recorded as “++++”.
